The record followed here is ChEMBL document CHEMBL5113513, “Selective Inhibitors of Medium-Size S1' Pocket Matrix Metalloproteinases: A Stepping Stone of Future Drug Discovery” (J Med Chem, 2022).

Structures are written as SMILES.

For assay [1], the target named is T1, Interstitial collagenase (Homo sapiens, UniProt P03956).
T1 sequence (P03956 whole entry): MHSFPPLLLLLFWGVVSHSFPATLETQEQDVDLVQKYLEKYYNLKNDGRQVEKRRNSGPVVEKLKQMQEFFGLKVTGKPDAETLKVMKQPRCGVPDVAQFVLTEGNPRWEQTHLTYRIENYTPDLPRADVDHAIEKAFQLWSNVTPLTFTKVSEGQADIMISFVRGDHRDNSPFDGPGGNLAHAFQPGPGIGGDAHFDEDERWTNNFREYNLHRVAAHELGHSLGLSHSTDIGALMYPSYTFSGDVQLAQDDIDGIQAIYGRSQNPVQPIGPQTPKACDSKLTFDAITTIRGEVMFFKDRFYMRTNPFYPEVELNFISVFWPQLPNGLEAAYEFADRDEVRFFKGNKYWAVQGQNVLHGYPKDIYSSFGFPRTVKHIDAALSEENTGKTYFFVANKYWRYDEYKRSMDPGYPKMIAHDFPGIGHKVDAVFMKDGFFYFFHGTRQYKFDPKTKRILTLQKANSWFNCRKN
Description: Inhibition of recombinant human MMP-1 for 3 hrs using colorimetric substrate by ELISA. In general terms: An ELISA detects its analyte on a solid surface through an enzyme-linked reagent.

Assay [2] deals with T2, 72 kDa type IV collagenase (Homo sapiens, UniProt P08253). Kind of assay: Inhibition of recombinant human MMP-2 for 3 hrs using colorimetric substrate by ELISA.
The target in assay [3] is T3, Neutrophil collagenase (Homo sapiens, UniProt P22894). Description: Inhibition of recombinant human MMP-8 for 3 hrs using colorimetric substrate by ELISA.
Assay [4] addresses T1, Interstitial collagenase. Kind of assay: Inhibition of MMP-1 (unknown origin) expressed in Escherichia coli BL21(DE3) and measured for 2 mins by enzymatic assay.
Assay [5] has as its target T1, Interstitial collagenase. Description: Inhibition of human MMP-1 using Mca-Pro-Leu-Gly-Leu-Dpa-Ala-Arg-NH2 as substrate preincubated for 1 hr followed by susbstrate addition by fluorescent analysis.
For assay [6], the target named is T2, 72 kDa type IV collagenase. Kind of assay: Inhibition of human MMP-2 using Mca-Pro-Leu-Gly-Leu-Dpa-Ala-Arg-NH2 as substrate preincubated for 1 hr followed by susbstrate addition by fluorescent analysis.
In assay [7] the target is T3, Neutrophil collagenase. Kind of assay: Inhibition of human MMP-8 using Mca-Pro-Leu-Gly-Leu-Dpa-Ala-Arg-NH2 as substrate preincubated for 1 hr followed by susbstrate addition by fluorescent analysis.
Assay [8] deals with T4, Matrix metalloproteinase-14 (Homo sapiens, UniProt P50281). Description: Inhibition of human MMP-14 using Mca-Pro-Leu-Gly-Leu-Dpa-Ala-Arg-NH2 as substrate preincubated for 1 hr followed by susbstrate addition by fluorescent analysis.
In assay [9] the target is T1, Interstitial collagenase. Description: Inhibition of human MMP-1 expressed in Escherichia coli BL21(DE3) using Mca-Pro-Leu-Gly-Leu-Dpa-Ala-Arg-NH2 as substrate preincubated for 30 mins followed by susbstrate addition by photon-counter spectrophotometer analysis.
Assay [10] deals with T2, 72 kDa type IV collagenase. Description: Inhibition of human MMP-2 expressed in Escherichia coli BL21(DE3) using Mca-Pro-Leu-Gly-Leu-Dpa-Ala-Arg-NH2 as substrate preincubated for 30 mins followed by susbstrate addition by photon-counter spectrophotometer analysis.
The next assay concerns the target Stromelysin-1 (Homo sapiens, UniProt P08254). Description: Inhibition of human MMP-3 expressed in Escherichia coli BL21(DE3) using Mca-Pro-Leu-Gly-Leu-Dpa-Ala-Arg-NH2 as substrate preincubated for 30 mins followed by susbstrate addition by photon-counter spectrophotometer analysis.
The next assay concerns the target T5, Matrilysin (Homo sapiens, UniProt P09237).
T5 sequence (P09237 whole entry): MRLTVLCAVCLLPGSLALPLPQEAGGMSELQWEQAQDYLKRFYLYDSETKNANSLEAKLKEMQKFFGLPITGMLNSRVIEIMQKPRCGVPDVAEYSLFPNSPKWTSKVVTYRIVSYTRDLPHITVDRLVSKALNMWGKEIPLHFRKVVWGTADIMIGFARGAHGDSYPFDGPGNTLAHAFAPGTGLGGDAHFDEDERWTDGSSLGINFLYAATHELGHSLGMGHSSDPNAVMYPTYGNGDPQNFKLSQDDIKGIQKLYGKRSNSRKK
Description: Inhibition of human MMP-7 expressed in Escherichia coli BL21(DE3) using Mca-Pro-Leu-Gly-Leu-Dpa-Ala-Arg-NH2 as substrate preincubated for 30 mins followed by susbstrate addition by photon-counter spectrophotometer analysis.

Assay [11] deals with T3, Neutrophil collagenase. Description: Inhibition of human MMP-8 expressed in Escherichia coli BL21(DE3) using Mca-Pro-Leu-Gly-Leu-Dpa-Ala-Arg-NH2 as substrate preincubated for 30 mins followed by susbstrate addition by photon-counter spectrophotometer analysis.
Assay [12] addresses Matrix metalloproteinase-9 (Homo sapiens, UniProt P14780). Description: Inhibition of human MMP-9 expressed in Escherichia coli BL21(DE3) using Mca-Pro-Leu-Gly-Leu-Dpa-Ala-Arg-NH2 as substrate preincubated for 30 mins followed by susbstrate addition by photon-counter spectrophotometer analysis.
A further assay addresses Stromelysin-2 (Homo sapiens, UniProt P09238). Description: Inhibition of human MMP-10 expressed in Escherichia coli BL21(DE3) using Mca-Pro-Leu-Gly-Leu-Dpa-Ala-Arg-NH2 as substrate preincubated for 30 mins followed by susbstrate addition by photon-counter spectrophotometer analysis.
Assay [13] concerns the target T6, Macrophage metalloelastase (Homo sapiens, UniProt P39900). Description: Inhibition of human MMP-12 expressed in Escherichia coli BL21(DE3) using Mca-Pro-Leu-Gly-Leu-Dpa-Ala-Arg-NH2 as substrate preincubated for 30 mins followed by susbstrate addition by photon-counter spectrophotometer analysis.
The next assay concerns the target Collagenase 3 (Homo sapiens, UniProt P45452). Kind of assay: Inhibition of human MMP-13 expressed in Escherichia coli BL21(DE3) using Mca-Pro-Leu-Gly-Leu-Dpa-Ala-Arg-NH2 as substrate preincubated for 30 mins followed by susbstrate addition by photon-counter spectrophotometer analysis.
Assay [14] deals with T4, Matrix metalloproteinase-14. Kind of assay: Inhibition of human MMP-14 expressed in Escherichia coli BL21(DE3) using Mca-Pro-Leu-Gly-Leu-Dpa-Ala-Arg-NH2 as substrate preincubated for 30 mins followed by susbstrate addition by photon-counter spectrophotometer analysis.
Assay [15] addresses T6, Macrophage metalloelastase. Kind of assay: Inhibition of recombinant human MMP-12 by ELISA.

T3 sequence (P22894 whole entry): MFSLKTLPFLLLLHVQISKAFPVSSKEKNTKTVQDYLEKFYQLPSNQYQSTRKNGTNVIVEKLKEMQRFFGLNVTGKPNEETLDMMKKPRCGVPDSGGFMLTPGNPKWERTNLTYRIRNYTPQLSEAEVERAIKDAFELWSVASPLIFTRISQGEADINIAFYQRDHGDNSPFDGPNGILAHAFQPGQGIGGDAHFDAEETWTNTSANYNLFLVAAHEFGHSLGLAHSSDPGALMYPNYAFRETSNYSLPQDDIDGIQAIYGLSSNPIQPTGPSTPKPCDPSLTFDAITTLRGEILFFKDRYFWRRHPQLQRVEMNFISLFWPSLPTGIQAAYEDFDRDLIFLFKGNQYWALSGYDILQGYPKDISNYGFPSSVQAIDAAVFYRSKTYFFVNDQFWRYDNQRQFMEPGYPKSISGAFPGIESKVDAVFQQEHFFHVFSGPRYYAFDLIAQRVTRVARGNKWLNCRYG
T2 sequence (P08253 whole entry): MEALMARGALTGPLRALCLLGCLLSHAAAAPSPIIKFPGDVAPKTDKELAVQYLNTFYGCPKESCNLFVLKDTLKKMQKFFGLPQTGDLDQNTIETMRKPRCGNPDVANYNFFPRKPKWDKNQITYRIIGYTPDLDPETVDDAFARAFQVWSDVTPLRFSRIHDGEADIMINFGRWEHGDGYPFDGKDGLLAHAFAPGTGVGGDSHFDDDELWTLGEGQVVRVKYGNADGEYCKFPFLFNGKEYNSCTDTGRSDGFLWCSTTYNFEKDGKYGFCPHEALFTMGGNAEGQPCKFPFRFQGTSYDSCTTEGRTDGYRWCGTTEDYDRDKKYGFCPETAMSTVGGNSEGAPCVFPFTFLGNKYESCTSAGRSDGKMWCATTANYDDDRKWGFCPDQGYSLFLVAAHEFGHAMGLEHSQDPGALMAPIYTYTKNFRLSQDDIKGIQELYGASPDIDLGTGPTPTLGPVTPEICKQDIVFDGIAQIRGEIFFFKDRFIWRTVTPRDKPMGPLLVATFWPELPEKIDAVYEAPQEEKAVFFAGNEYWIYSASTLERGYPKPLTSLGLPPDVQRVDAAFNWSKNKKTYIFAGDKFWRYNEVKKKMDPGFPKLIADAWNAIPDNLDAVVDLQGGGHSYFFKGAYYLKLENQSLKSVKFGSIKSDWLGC
T6 sequence (P39900 whole entry): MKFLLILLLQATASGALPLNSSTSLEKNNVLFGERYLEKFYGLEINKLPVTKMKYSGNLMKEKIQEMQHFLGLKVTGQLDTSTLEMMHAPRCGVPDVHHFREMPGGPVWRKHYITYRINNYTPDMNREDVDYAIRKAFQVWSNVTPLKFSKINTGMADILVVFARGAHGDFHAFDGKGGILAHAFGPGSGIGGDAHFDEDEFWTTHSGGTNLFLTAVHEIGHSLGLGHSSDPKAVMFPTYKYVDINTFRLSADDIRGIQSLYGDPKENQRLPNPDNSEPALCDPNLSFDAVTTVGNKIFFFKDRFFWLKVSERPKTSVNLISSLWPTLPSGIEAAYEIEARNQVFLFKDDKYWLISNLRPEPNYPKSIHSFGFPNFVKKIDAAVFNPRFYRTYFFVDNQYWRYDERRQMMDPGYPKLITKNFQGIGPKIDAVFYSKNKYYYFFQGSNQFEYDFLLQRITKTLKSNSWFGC
Chain of Stromelysin-1 (P08254 whole entry): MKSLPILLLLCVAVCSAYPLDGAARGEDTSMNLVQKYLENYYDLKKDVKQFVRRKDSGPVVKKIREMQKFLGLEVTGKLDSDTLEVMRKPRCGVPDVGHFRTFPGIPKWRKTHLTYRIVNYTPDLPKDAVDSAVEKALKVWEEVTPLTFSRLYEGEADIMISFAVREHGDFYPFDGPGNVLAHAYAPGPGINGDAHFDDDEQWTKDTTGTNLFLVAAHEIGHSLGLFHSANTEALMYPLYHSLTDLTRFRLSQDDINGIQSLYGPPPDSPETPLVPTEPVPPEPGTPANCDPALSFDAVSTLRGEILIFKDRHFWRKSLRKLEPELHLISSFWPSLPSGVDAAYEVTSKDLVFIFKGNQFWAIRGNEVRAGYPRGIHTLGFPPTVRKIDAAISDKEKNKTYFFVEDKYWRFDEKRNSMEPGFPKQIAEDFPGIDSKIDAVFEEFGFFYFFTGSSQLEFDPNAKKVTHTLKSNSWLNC
Chain of Stromelysin-2 (P09238 whole entry): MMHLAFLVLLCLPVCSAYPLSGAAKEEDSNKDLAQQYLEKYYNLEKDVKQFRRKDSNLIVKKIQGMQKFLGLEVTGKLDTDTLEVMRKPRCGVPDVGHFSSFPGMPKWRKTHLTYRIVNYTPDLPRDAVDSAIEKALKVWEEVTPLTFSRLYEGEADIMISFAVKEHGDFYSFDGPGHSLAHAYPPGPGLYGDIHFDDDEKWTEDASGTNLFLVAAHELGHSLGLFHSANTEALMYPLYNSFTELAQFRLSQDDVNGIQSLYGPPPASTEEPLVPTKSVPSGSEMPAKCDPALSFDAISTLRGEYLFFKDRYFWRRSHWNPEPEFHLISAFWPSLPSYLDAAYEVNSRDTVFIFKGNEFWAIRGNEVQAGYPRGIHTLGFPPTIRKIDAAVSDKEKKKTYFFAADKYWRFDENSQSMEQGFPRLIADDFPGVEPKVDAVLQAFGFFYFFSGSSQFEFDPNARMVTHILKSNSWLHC
Chain of Matrix metalloproteinase-9 (P14780 whole entry): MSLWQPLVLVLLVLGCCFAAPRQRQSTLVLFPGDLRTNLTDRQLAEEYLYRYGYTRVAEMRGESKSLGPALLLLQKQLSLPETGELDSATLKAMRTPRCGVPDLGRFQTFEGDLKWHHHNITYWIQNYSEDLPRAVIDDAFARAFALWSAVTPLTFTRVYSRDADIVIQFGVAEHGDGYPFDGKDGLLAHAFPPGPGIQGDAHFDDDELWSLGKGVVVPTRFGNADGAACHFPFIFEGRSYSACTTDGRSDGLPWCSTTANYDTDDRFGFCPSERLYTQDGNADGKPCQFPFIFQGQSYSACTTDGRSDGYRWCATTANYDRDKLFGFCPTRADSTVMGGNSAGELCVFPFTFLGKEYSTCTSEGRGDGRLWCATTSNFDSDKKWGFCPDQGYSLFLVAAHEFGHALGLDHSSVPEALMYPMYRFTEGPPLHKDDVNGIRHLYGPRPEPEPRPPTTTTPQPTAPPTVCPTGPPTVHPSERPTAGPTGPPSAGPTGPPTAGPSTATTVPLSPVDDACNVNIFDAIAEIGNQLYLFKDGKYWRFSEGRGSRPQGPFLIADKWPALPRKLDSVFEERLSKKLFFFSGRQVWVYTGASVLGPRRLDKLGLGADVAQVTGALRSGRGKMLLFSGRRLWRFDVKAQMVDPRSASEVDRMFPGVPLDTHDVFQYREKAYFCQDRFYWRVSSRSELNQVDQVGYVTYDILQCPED

In general, IC50 refers to the midpoint of a concentration-inhibition curve. Regarding `CC(C)CNC(=O)P(=O)(O)O`, the IC50 is 40 µM at Interstitial collagenase [1], > 100 µM in assay [2] and 1000 nM on Neutrophil collagenase [3].

For the molecule `O=C(NO)C1c2ccc(O)cc2CCN1S(=O)(=O)c1cc(Cl)ccc1Cl` (centres undefined), on Interstitial collagenase [4], it took 50 µM to reach half-maximal inhibition (IC50).

Consider `Cc1cc(=O)c(O)c(C(=O)NCc2ccc(-c3ccc(-c4ccccc4)cc3)cc2)o1`, for which the IC50 against Interstitial collagenase [5] was > 50 µM; in [6], > 2000 nM; on Neutrophil collagenase [7] it was > 2000 nM; in assay [8] it was > 2000 nM.

One may read the Ki as a dissociation constant, usually derived from enzyme kinetics or from competition with a known ligand. Read a high Ki as a looser hold on the target. Turning to `NC(=O)[C@@H](CCC(=O)O)NC(=O)[C@@H](CCC(=O)O)NC(=O)[C@@H](Cc1cc(-c2ccc(-c3cccc(Cl)c3)cc2)no1)CP(=O)(O)c1ccc(Br)cc1`, the Ki came out at 67 µM on Interstitial collagenase [9]; 192 nM in assay [10]; 40 nM on Stromelysin-1; 626 nM at Matrilysin; 271 nM on Neutrophil collagenase [11]; 1260 nM in assay [12]. Moreover, the Ki on Stromelysin-2 came out at 18.4 µM; in assay [13], 0.19 nM; at Collagenase 3, 49 nM; in assay [14], 140 nM.

Consider `CC(C)CC(C(=O)NC(c1noc(Sc2ccccc2)n1)C(C)(C)C)C(O)C(=O)NO` (centres undefined), for which the IC50 in [15] was 20 nM.
